Data on three molecules can be found in patent US11370841B2, “Methods of treating fibroblast growth factor 19-mediated cancers and tumors” (NGM Biopharmaceuticals, Inc., priority 2016, dated 2022).

The test system of one test is FGF19-mediated HCC. The experiment in a line: Tumorigenicity study in db/db mice (AAV-SOCS3, tofacitinib). The test is classed as in vivo. As to the method: Blood parameters. Blood was collected from tail vein in un-anesthetized animals using microvette serum gel tubes (Sarstedt) for measurements of glucose, insulin, ALT, AST, ALP, bile acids, and FGF19 concentrations. Serum samples were prepared by centrifugation at 4° C. for 10 minutes at 6000 g after clotting at room temperature for 30 minutes. For HbA1c measurements, whole blood was collected after euthanasia by cardiac puncture into EDTA-tubes and quickly inverted multiple times. HbA1c (from whole blood samples) and liver enzyme (from serum samples) levels were measured on Cobas Integra 400 Clinical Analyzer (Roche Diagnostics). Serum FGF19 level was determined by FGF19 enzyme-linked immunosorbent assays (ELISA) (Biovendor). Serum insulin was assessed with ELISA kits from ALPCO. Concentrations of total bile acids in serum were determined using a 3β-hydroxysteroid dehydrogenase method (Diazyme). All assays were performed according to the manufacturers' instructions.
Histology and immunohistochemistry. Livers were fixed in 10% neutral-buffered formalin and embedded in paraffin. 5 μm sections were deparaffinized in xylenes, rehydrated sequentially in graded ethanol (100%, 95%, 80%, 70%, 50%, 2 minutes each). Hematoxylin and eosin staining was performed using standard methods. For immunohistochemical studies, liver sections were subjected to antigen retrieval in a citrate-based Antigen Unmasking Solution (Vector Laboratories), and incubated for 30 minutes with 3% H2O2 at room temperature to block endogenous peroxidase activity. Sections were stained with primary antibodies against glutamine synthetase (Thermo Fisher), BrdU, PCNA, or STAT3 in PBS containing 10% goat serum. Biotinylated secondary antibodies, ABC-HRP reagent (Vectastain ABC kit, #PK-6100, Vector Laboratories) and di-amine-benzidine (DAB) colorimetric peroxidase substrate (#SK-4100, Vector Laboratories) were used for detection. When indicated, sections were counterstained with hematoxylin. Digital imaging microscopy was performed using a Leica DM4000 microscope equipped with DFC500 camera and a scanning platform (Leica). Images for the entire liver section were acquired by stitching 70-96 fields together using Surveyor program for morphometric analysis. Glutamine synthetase-positive tumor areas were quantified using Measure/Count/Area tool from ImagePro software.
Tumorigenicity study in db/db mice. 11 to 12 week old db/db mice received a single intravenous dose of AAV containing either FGF19 or a control gene (green fluorescent protein). Body weight and blood glucose were monitored. […] Mice were euthanized 24 weeks post-AAV administration and examined for liver tumor formation by gross appearance and histology.

Test [1] concerns primary mouse hepatocytes. Description: In vitro pSTAT3 activation in primary mouse hepatocytes. The test is classed as cell-based. As to conditions: isolated mouse hepatocytes, 50 ng/ml. As to the method:
Primary mouse hepatocytes were isolated from 8-10 week old wild type mice (BioReclamation/IVT). Cells were diluted in attachment media, and cells were plated on collagen-coated 6-well plate (Becton Dickinson). Four hours later, cells were changed into M199 media supplemented with 10% FBS, 2 mM glutamine, 100 unit/ml penicillin, 100 unit/ml streptomycin, and cultured for 16 hours at 37° C. When indicated, 50 ng/ml FGF19 protein or 50 ng/ml mouse IL-6 (Peprotech) were added.
Cell extracts were prepared in 50 mM Tris-Cl, PH 7.2, 150 mM NaCl, 1% NP-40, 0.1% SDS, 0.5% sodium deoxycholate supplemented with a protease inhibitor cocktail (Roche) and phosphatase inhibitors (Sigma, phosphatase inhibitor cocktail set 2 and set 3), and protein concentrations were determined by BCA protein assay (Thermo Scientific).
Immunoblotting. Cell or tissue lysates were mixed with 4×SDS sample loading buffer (50 mM Tris-Cl, pH6.8, 2.5% SDS, urea, 4% β-mercaptoethanol), heated for 10 minutes at 95° C., and separated on 4-20% SDS-polyacrylamide gels (Life Technologies) in 1×MOPS running buffer. Proteins were transferred onto PVDF membranes (GE Healthcare). Membranes were blocked in TBST buffer (20 mM Tris-Cl, pH 7.6, 137 mM NaCl, 0.1% Tween-20) containing 5% non-fat dry milk for 1 hour at room temperature, and incubated with anti-pSTAT3^Y705, anti-total STAT3, anti-pERK, anti-total ERK, or anti-β-actin antibodies in blocking buffer at 4° C. overnight. Membranes were washed in TBST extensively, and bound proteins were detected with horseradish peroxidase-conjugated goat-anti-mouse IgG or goat-anti-rabbit IgG antibodies (GE Healthcare) for 1 hour at room temperature. […]
To investigate an in vitro direct effect of FGF19 on STAT3 activation in isolated hepatocytes, pSTAT3^Y705 levels in primary cultures of hepatocytes upon FGF19 stimulation were analyzed by western blotting. […] Cell lysates were prepared at the indicated time points following FGF19 stimulation and analyzed for phosphorylation of the various proteins.

In test [2] the test system is primary mouse hepatocytes. The experiment in a line: In vitro BrdU incorporation in primary mouse hepatocytes. The test is classed as cell-based. As to conditions: 48 hours incubation. Here is the method: FIGS. 2A-2E depict non-cell autonomous promotion of hepatocellular proliferation by FGF19. 11 week old mice (n=5 per group) were implanted with osmotic pumps releasing BrdU (8.5 mg/kg/day) and FGF19 protein (0.4 mg/kg/day). Livers were harvested 6 days post-implant. (FIG. 2A) Flow cytometry analysis of BrdU-labeled livers is shown. Representative histograms from hepatocytes stained with 7-ADD and anti-BrdU-APC are shown. (FIG. 2B) BrdU-positive hepatocytes as a percentage of total hepatocytes from vehicle (V)-treated (n=5) or FGF19-treated (n=5) mice were quantified by flow cytometry. (FIG. 2C) Shown are circulating FGF19 levels on day 6 post-implant of osmotic pumps. (FIG. 2D) Lack of proliferative effects of FGF19 on primary mouse hepatocytes. Primary cultures of hepatocytes isolated from mouse liver were incubated with recombinant FGF19 protein at the indicated concentrations for 48 hours and BrdU was added during the last 20 hours of incubation. BrdU incorporation was determined using a luminescence method. Mouse hepatocyte growth factor (mHGF) was included as a positive control. RLU, relative luminescence unit. (FIG. 2E) Lack of proliferative effects of FGF19 on primary human hepatocytes. Primary cultures of hepatocytes isolated from human liver were incubated with recombinant FGF19 protein. Human hepatocyte growth factor (hHGF) was included as a positive control. […]

Setting [3] is: diet with 0.01% tofacitinib from 4 weeks after AAV-FGF19, 20 weeks.

Regarding `C[C@@H]1CCN(C(=O)CC#N)C[C@@H]1N(C)c1ncnc2[nH]ccc12` [tofacitinib], in the test on FGF19-mediated HCC (setting [3]), the Average tumor load entry is given as “reduced” and the “Number of macroscopically detectable tumors” value was “reduced”. In the test with FGF19-mediated HCC (tofacitinib in diet), the “FGF19's effect on normalizing blood levels of HbA1c” value was “no impact”, the “FGF19's effect on normalizing blood levels of bile acids” value is reported as “no impact” and the “FGF19's effect on normalizing blood levels of glucose” value is “no impact”. Also, the “FGF19-induced liver tumor formation” value in the test on FGF19-mediated HCC (tofacitinib initiated 4 weeks after AAV, euthanized at 24 weeks) is “inhibited”.

B1: IL-6: mouse IL-6 (Peprotech), positive control for pSTAT3 activation (protein, UniProt P08505 25-211, looked up)
Interleukin-6: FPTSQVRRGDFTEDTTPNRPVYTTSQVGGLITHVLWEIVEMRKELCNGNSDCMNNDDALAENNLKLPEIQRNDGCYQTGYNQEICLLKISSGLLEYHSYLEYMKNNLKDNKKDKARVLQRDTETLIHIFNQEVKDLHKIVLPTPISNALLTDKLESQKEWLRTKTIQFILKSLEEFLKVTLRSTRQT
As to B1, in test [1], the “STAT3 phosphorylation (pSTAT3 Y705) by western blotting” value is given as “robust elevated phosphorylation”.

B2: HGF: recombinant hepatocyte growth factor (Peprotech), positive control for BrdU incorporation (protein, UniProt Q08048 33-495; Q08048 496-728, looked up)
Hepatocyte growth factor …: QKKRRNTLHEFKKSAKTTLTKEDPLLKIKTKKVNSADECANRCIRNRGFTFTCKAFVFDKSRKRCYWYPFNSMSSGVKKGFGHEFDLYENKDYIRNCIIGKGGSYKGTVSITKSGIKCQPWNSMIPHEHSFLPSSYRGKDLQENYCRNPRGEEGGPWCFTSNPEVRYEVCDIPQCSEVECMTCNGESYRGPMDHTESGKTCQRWDQQTPHRHKFLPERYPDKGFDDNYCRNPDGKPRPWCYTLDPDTPWEYCAIKTCAHSAVNETDVPMETTECIQGQGEGYRGTSNTIWNGIPCQRWDSQYPHKHDITPENFKCKDLRENYCRNPDGAESPWCFTTDPNIRVGYCSQIPKCDVSSGQDCYRGNGKNYMGNLSKTRSGLTCSMWDKNMEDLHRHIFWEPDASKLNKNYCRNPDDDAHGPWCYTGNPLIPWDYCPISRCEGDTTPTIVNLDHPVISCAKTKQLR
Hepatocyte growth factor beta …: VVNGIPTQTTVGWMVSLKYRNKHICGGSLIKESWVLTARQCFPARNKDLKDYEAWLGIHDVHERGEEKRKQILNISQLVYGPEGSDLVLLKLARPAILDNFVSTIDLPSYGCTIPEKTTCSIYGWGYTGLINADGLLRVAHLYIMGNEKCSQHHQGKVTLNESELCAGAEKIGSGPCEGDYGGPLICEQHKMRMVLGVIVPGRGCAIPNRPGIFVRVAYYAKWIHKVILTYKL
Consider B2, for which the BrdU signal result in test [2] is recorded as “strong BrdU signals”.
